Values joined by “and” are separate entries in the source; they are usually repeats but may differ in a detail not shown here. Identical values can stand only once. Toxic doses and inconclusive results are not listed. Peptide text beside a SMILES is read from it. * marks the point of attachment. Cbz = O=C(OCc1ccccc1)*

The subject of the experiment is BDF1 mice, B16 melanoma ip, median survival T/C. As to the kind of experiment: NCI In Vivo Anticancer Drug Screen. Data for tumor model B16 Melanoma (intraperitoneal) in B6D2F1 (BDF1) mice. The conditions noted are these: endpoint: median survival time, higher = longer survival. An outline of the steps: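 Mice with transplantable tumors; drug vs vehicle groups; endpoint survival or tumor size; value = T/C.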

Setting [1] is: dose: 25.0 mg/kg/injection, schedule: Q01DX009 (ip), vehicle: saline with Tween-80.
The mark [2] stands for this setting: dose: 50.0 mg/kg/injection, schedule: Q01DX009 (ip), vehicle: saline with Tween-80.
The mark [3] stands for this setting: dose: 100.0 mg/kg/injection, schedule: Q01DX009 (ip), vehicle: saline with Tween-80.
[4] abbreviates: dose: 100.0 mg/kg/injection, schedule: Q01DX009 (ip), vehicle: Klucel (hydroxypropylcellulose) (HPC).
[5] abbreviates: dose: 200.0 mg/kg/injection, schedule: Q01DX009 (ip), vehicle: saline with Tween-80.
The mark [6] stands for this setting: dose: 400.0 mg/kg/injection, schedule: Q01DX009 (ip), vehicle: saline with Tween-80.

For the compound `Cc1[nH]ccc2c(C)c3nc4ccc(O)cc4c3cc12`, the T/C is 123 % of control (dose: 2.5 mg/kg/injection, schedule: Q04DX003 (ip), vehicle: water); 121 % of control (dose: 5.0 mg/kg/injection, schedule: Q04DX003 (ip), vehicle: water); 153 % of control (dose: 20.0 mg/kg/injection, schedule: Q04DX003 (ip), vehicle: water); 113 % of control (dose: 40.0 mg/kg/injection, schedule: Q04DX003 (ip), vehicle: water).
On to `Cc1c2ccncc2cc2c1[nH]c1ccccc12`, for which the T/C is, setting by setting: under setting [1], 119 % of control; under setting [2], 121 % of control; under setting [3], 122 % of control.
With `CCC1(C)c2cc(C)c(C(C)=O)cc2C(C)(C)C1C` (stereo not drawn), the T/C is, setting by setting: under setting [1], 107 % of control; under setting [2], 99 % of control.
As to `COC(=O)c1[nH]cnc1/N=N/N(C)C`, the T/C is 121 % of control (dose: 3.75 mg/kg/injection, schedule: Q01DX009 (ip), vehicle: saline) and 121 % of control (dose: 15.0 mg/kg/injection, schedule: Q01DX009 (ip), vehicle: saline).
Turning to `O=S(=O)(O)c1ccc(N=Nc2ccc(O)cc2)cc1`, the T/C by setting is: (dose: 50.0 mg/kg/injection, schedule: Q04DX003 (ip), vehicle: Klucel (hydroxypropylcellulose) (HPC)) 105 % of control; (dose: 100.0 mg/kg/injection, schedule: Q04DX003 (ip), vehicle: Klucel (hydroxypropylcellulose) (HPC)) 97 % of control; (dose: 200.0 mg/kg/injection, schedule: Q04DX003 (ip), vehicle: Klucel (hydroxypropylcellulose) (HPC)) 91 % of control.
For the compound `COc1ccc(CCN2C(=O)CSC2=S)cc1OC`, the T/C by setting is: (dose: 25.0 mg/kg/injection, schedule: Q01DX009 (ip), vehicle: Klucel (hydroxypropylcellulose) (HPC)) 100 % of control; (dose: 50.0 mg/kg/injection, schedule: Q01DX009 (ip), vehicle: Klucel (hydroxypropylcellulose) (HPC)) 88 % of control; under setting [2], 94 % of control and 98 % of control; under setting [4], 89 % of control and 94 % of control; under setting [3], 104 % of control; (dose: 100.0 mg/kg/injection, schedule: Q04DX003 (ip), vehicle: saline with Tween-80) 89 % of control. The T/C is, setting by setting: under setting [5], 90 % of control and 94 % of control; (dose: 200.0 mg/kg/injection, schedule: Q04DX003 (ip), vehicle: saline with Tween-80) 94 % of control.
On to `CCCC(C(=O)O)c1ccccc1C` (stereo not drawn), for which the T/C under setting [3] was 102 % of control; the T/C under setting [5] was 99 % of control; the T/C (dose: 300.0 mg/kg/injection, schedule: Q01DX009 (ip), vehicle: saline with Tween-80) is 106 % of control.
As to `Cn1cnc2c1c(=O)[nH]c(=O)n2C`, the T/C under setting [4] was 109 % of control; the T/C (dose: 200.0 mg/kg/injection, schedule: Q01DX009 (ip), vehicle: Klucel (hydroxypropylcellulose) (HPC)) is 111 % of control; the T/C (dose: 400.0 mg/kg/injection, schedule: Q01DX009 (ip), vehicle: Klucel (hydroxypropylcellulose) (HPC)) is 109 % of control.
Consider `CC(=O)CC(=O)N1CCN(C(=O)CC(C)=O)CC1`, for which the T/C is 87 % of control (dose: 100.0 mg/kg/injection, schedule: Q01DX009 (ip), vehicle: saline); 87 % of control (dose: 200.0 mg/kg/injection, schedule: Q01DX009 (ip), vehicle: saline); 91 % of control (dose: 400.0 mg/kg/injection, schedule: Q01DX009 (ip), vehicle: saline).
Take `Cc1cc2[nH]c(=O)[nH]c2cc1C`: the T/C was 97 % of control under setting [2] and 90 % of control under setting [3].
For `CCOc1ccc(OCC)c(NC(=O)c2ccccc2)c1`, the T/C was 114 % of control under setting [3], 110 % of control under setting [5] and 110 % of control under setting [6].
In the case of `CCC1=C[C@H]2CN(CCc3c([nH]c4ccccc34)[C@@](C(=O)OC)(c3cc4c(cc3OC)N(C)[C@H]3[C@@](O)(C(=O)NC)[C@H](OC(C)=O)[C@]5(CC)C=CCN6CC[C@]43[C@@H]65)C2)C1`, the T/C by setting is: (dose: 0.05 mg/kg/injection, schedule: Q01DX009 (ip), vehicle: Klucel (hydroxypropylcellulose) (HPC)) 119 % of control; (dose: 0.06 mg/kg/injection, schedule: Q01DX009 (ip), vehicle: water) 156 % of control; (dose: 0.1 mg/kg/injection, schedule: Q01DX009 (ip), vehicle: Klucel (hydroxypropylcellulose) (HPC)) 113 % of control; (dose: 0.12 mg/kg/injection, schedule: Q01DX009 (ip), vehicle: water) 160 % of control and 183 % of control; (dose: 0.12 mg/kg/injection, schedule: Q04DX003 (ip), vehicle: water) 123 % of control; (dose: 0.2 mg/kg/injection, schedule: Q01DX009 (ip), vehicle: Klucel (hydroxypropylcellulose) (HPC)) 124 % of control. Besides, the T/C (dose: 0.25 mg/kg/injection, schedule: Q01DX009 (ip), vehicle: water) was 181 % of control and 220 % of control; the T/C (dose: 0.5 mg/kg/injection, schedule: Q01DX009 (ip), vehicle: water) was 157 % of control; the T/C (dose: 0.5 mg/kg/injection, schedule: Q04DX003 (ip), vehicle: water) was 156 % of control; the T/C (dose: 1.6 mg/kg/injection, schedule: Q01DX009 (ip), vehicle: Klucel (hydroxypropylcellulose) (HPC)) was 181 % of control.
Consider `COc1cccc2c1C(=N)c1c(O)c3c(c(O)c1C2=O)C[C@@](O)(C(C)=O)C[C@@H]3OC1CC(N)C(O)C(C)O1` (stereo partly drawn), for which the T/C runs as follows: (dose: 1.0 mg/kg/injection, schedule: Q01DX009 (ip), vehicle: water) 177 % of control; (dose: 1.56 mg/kg/injection, schedule: Q01DX001 (ip), vehicle: water) 163 % of control; (dose: 2.0 mg/kg/injection, schedule: Q01DX009 (ip), vehicle: water) 205 % of control; (dose: 3.13 mg/kg/injection, schedule: Q01DX001 (ip), vehicle: water) 159 % of control; (dose: 4.0 mg/kg/injection, schedule: Q01DX009 (ip), vehicle: water) 201 % of control; (dose: 6.25 mg/kg/injection, schedule: Q01DX001 (ip), vehicle: water) 166 % of control and 168 % of control and 185 % of control. The T/C is, setting by setting: (dose: 12.0 mg/kg/injection, schedule: Q01DX001 (ip), vehicle: water) 94 % of control; (dose: 12.5 mg/kg/injection, schedule: Q01DX001 (ip), vehicle: water) 164 % of control and 201 % of control; (dose: 20.0 mg/kg/injection, schedule: Q01DX001 (ip), vehicle: water) 95 % of control.
Take `CC(NC(=O)C(Cc1ccc(O)cc1)NC(=O)C(C)NC(=O)OCc1ccccc1)C(=O)O` (stereo not drawn) (Cbz-Ala-Tyr-Ala-OH; configuration not given here): the T/C under setting [2] is 98 % of control, the T/C under setting [3] was 93 % of control, the T/C under setting [5] was 96 % of control and the T/C under setting [6] was 92 % of control.
For `O=NN(CCBr)C(=O)Nc1ccccc1`, the T/C reads like this: (dose: 12.5 mg/kg/injection, schedule: Q01DX009 (ip), vehicle: saline with Tween-80) 152 % of control; under setting [1], 202 % of control; (dose: 37.5 mg/kg/injection, schedule: Q01DX009 (ip), vehicle: saline with Tween-80) 171 % of control; under setting [2], 177 % of control.
Regarding `Oc1ccc2ccccc2c1N=Nc1ccc(F)cc1`, the T/C is, setting by setting: under setting [3], 119 % of control; under setting [6], 108 % of control.
For the compound `[Cl][Pt+2][Cl].[NH-]CC1(C[NH-])CCC1`, the T/C is 159 % of control (dose: 1.2 mg/kg/injection, schedule: Q01DX009 (ip), vehicle: carboxymethylcellulose (CMC)); 168 % of control (dose: 2.4 mg/kg/injection, schedule: Q01DX009 (ip), vehicle: carboxymethylcellulose (CMC)); 169 % of control (dose: 3.6 mg/kg/injection, schedule: Q01DX009 (ip), vehicle: carboxymethylcellulose (CMC)).

The record behind these values is PubChem BioAssay AID192 (DTP/NCI, 2004).
